Data as given in patent US8822509B2, “Pain-relieving compositions and uses therefor” (priority 2006, dated 2014).
Several values for one entry are separate records, joined by “and”; a condition that tells them apart may be missing. Equal entries are not always repeated.

What was measured:
[1] = In vitro NO release (Total NOx, modified Griess reagent assay)
Protocol: Briefly, HEK-MOP cells were seeded at 1×10^5 cells/mL and grown in 10 cm plates to 90% confluence. Four hours prior to experimentation, cell medium was replaced with phenol red-free DMEM. […] Following removal of each supernatant sample, it was replaced with 500 μL of phenol red-free DMEM. Samples were immediately placed on ice until NOx concentrations were quantified.
Sample aliquots (100 μL) were added to 96-well plates in duplicates. Nitrate was first converted to nitrite to determine total NOx concentrations with the addition of 100 μL aliquots of vanadium (III) chloride in 1M HCl (800 mg/100 mL) per well, followed by 100 μL aliquots of modified Griess reagent which converted nitrite to a deep purple azo derivative for spectrophotometric quantification at 560 nm using an Envision Multilabel Plate Reader (PerkinElmer Life Sciences). […] Total NOx and nitrite concentration was determined through inverse prediction against the nitrite standard curve.

[2] = molecular target: T1, μ-opioid receptors (MOP receptors) (Mus musculus, UniProt P42866); format: cell-based
T1 construct: expressed in transfected cells; host or cells: HEK293
T1 sequence (P42866 whole entry): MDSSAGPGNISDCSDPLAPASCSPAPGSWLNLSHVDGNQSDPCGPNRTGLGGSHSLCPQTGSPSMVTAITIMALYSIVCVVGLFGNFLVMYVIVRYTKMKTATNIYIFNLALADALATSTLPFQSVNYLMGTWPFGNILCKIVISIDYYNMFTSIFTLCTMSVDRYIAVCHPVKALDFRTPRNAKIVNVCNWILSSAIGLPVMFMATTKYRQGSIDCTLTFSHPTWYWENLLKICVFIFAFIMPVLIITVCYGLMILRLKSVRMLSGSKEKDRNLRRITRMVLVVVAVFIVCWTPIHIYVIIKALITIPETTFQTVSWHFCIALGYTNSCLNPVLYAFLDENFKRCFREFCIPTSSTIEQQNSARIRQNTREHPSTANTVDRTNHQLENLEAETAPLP

[3] = tested on: tactile (mechanical) allodynia in hindpaws of STZ-diabetic rats; assay: Anti-allodynia by von Frey paw withdrawal thresholds (PWT) in STZ-diabetic rats; format: in vivo, Wistar rats
Protocol: Following this, the jugular cannula was withdrawn, the vein tied off, and the incision sutured. Following surgery, rats received antibiotic prophylaxis in the form of topical dusting powder over the sutured incisions, as well as a subcutaneous injection of benzylpenicillin (60 mg). Rats were placed in individual cages, kept warm and monitored closely during the surgical recovery period. Rats were classified as diabetic if on day 10 post-STZ administration, their daily water intake was ≧100 mL and their corresponding blood glucose levels (BGLs) were ≧15 mM.
Calibrated von Frey filaments were used to document the time course for the development and maintenance of tactile allodynia (defining symptom of PDN).
Briefly, baseline PWTs were determined for both hindpaws prior to each antinociceptive testing session in the non-diabetic control group at week 0 as well as in groups of STZ-diabetic rats at 10, 14 and 24 wks.
The PWT vs time data were normalized by subtracting the pre-dosing baseline PWT values for each individual rat to obtain ΔPWT values as follows: Normalized (Δ)PWT value=Post-treatment PWT value−PWT value prior to treatment.
ΔPWT versus time curves were then constructed. Trapezoidal integration was used to estimate ΔPWT AUC values for individual rats in the non-diabetic and STZ-diabetic rat treatment groups. ΔPWT AUC versus dose curves were constructed and GraphPad™ Prism was used to estimate the ˜ED50 values.

[4] = tested on: non-diabetic control rats; assay: Tolerance development (7-day continuous s.c. infusion, 2-day washout) in non-diabetic control rats, von Frey PWT; format: in vivo
STZ-diabetic rats = assay: Behavioural side-effects in STZ-diabetic rats; format: in vivo; conditions: Compound 1 800 pmol/kg s.c.; morphine 21 μmol/kg
[5] = 10 wks post-STZ, Compound 1 s.c. (FIG. 3B)
[6] = 14 and 24 wks post-STZ, Compound 1 80 and 800 pmol/kg s.c.
[7] = drug-naïve non-diabetic rats, first s.c. bolus
[8] = non-diabetic rats, second s.c. bolus after 7-day infusion and 2-day washout
[9] = non-diabetic rats, second s.c. bolus after washout

Structure (SMILES): Cc1c(C=O)no[n+]1[O-] [Compound 1, 4-formyl-3-methyl-1,2,5-oxadiazole-2-oxide]
- Release of NO (Total NOx %) ([1]; Compound 1, 1 mM + L-Cysteine 5 mM, 6-h (b277 prints 50 mM)): 2.7±0.3% and 2.7 + 0.3%
- Release of NO (Total NOx %) ([1]; Compound 1, 1 mM, 6-h study period): 1.8% and 1.8±0.3%
- 1 Hour Total NOx ([1]; NOx analysis at 1 hour, assay of Example 9): 2.08 µM and 2.19 µM
- 6 Hours Total NOx ([1]; NOx analysis at 6 hours, assay of Example 9): 2.52 µM
- effect of naloxone pre-incubation on inhibition of forskolin-stimulated cAMP formation [2]: not by naloxone
- inhibition of forskolin-stimulated cAMP formation ([2]; MOP-transfected HEK293, mM, pM and aM concentrations): inhibited forskolin-stimulated cAMP formation
- effect of ODQ pre-incubation on modulation of forskolin-stimulated cAMP formation ([2]; ODQ 10 μM): did not significantly attenuate
- effect of pertussis toxin pre-incubation on inhibition of forskolin-stimulated cAMP formation ([2]; PTX 100 ng/mL 16 h, Compound 1 1 aM, morphine 1 μM): abolished by pre-incubation with pertussis toxin
- relief of mechanical allodynia at time of peak effect ([3]; 10 wks post-STZ, Compound 1 8 fmol/kg s.c.): complete relief of mechanical allodynia
- mean duration of action [3, 5]: > 3 h
- peak anti-allodynic response (PWT) [3, 5]: 10.6 ± 0.5 g
- time of peak anti-allodynic response post-dosing [3, 5]: ~75 min
- alleviation of mechanical allodynia at time of peak response [3, 6]: fully alleviated
- duration of action [3, 6]: ≥ 3 h
- anti-allodynic effect of doses used at week 10 ([3]; 14 weeks post-STZ, Compound 1 fmol/kg doses): no longer effective
- anti-allodynia in the hindpaws of STZ-diabetic rats ([3]; single s.c. bolus at 10, 14, 24 wks post-STZ): dose-dependent anti-allodynia/antinociception
- mean duration of action [4, 7]: ~3 h
- time of peak antinociception post-dosing [4, 7]: 1 h
- mean (±SEM) peak PWT ([4]; drug-naïve non-diabetic rats, Compound 1 8 fmol/kg, morphine 2.8 mmol/kg (so in the source) s.c. bolus): 15.9 ± 0.3 g
- tolerance after 7-day continuous s.c. infusion ([4]; non-diabetic rats): completely tolerant
- antinociception after second bolus, naïve vs "tolerant" rats ([4]; non-diabetic rats, after 2-day washout): did not differ significantly
- mean (±SEM) peak PWT [4, 8]: 15.6 (±0.7) g
- mean (±SEM) peak ΔPWT [4, 8]: 4.2 (±0.6) g
- mean duration of action [4, 9]: ~3 h
- time of peak antinociception post-dosing [4, 9]: 1 h
- behavioural side-effects at highest dose (STZ-diabetic rats): no discernable side-effects
